The record followed here is patent publication US20050165033A1, “Use of indole-3-acetic acids in the treatment of asthma, copd and other diseases” (priority 2002, published 2005).

The structures appear in SMILES notation.

The target in the experiment is T1, CRTh2 receptor (Homo sapiens, UniProt Q9Y5Y4).
T1 construct: expressed in transfected cells
T1 sequence (Q9Y5Y4 1-395): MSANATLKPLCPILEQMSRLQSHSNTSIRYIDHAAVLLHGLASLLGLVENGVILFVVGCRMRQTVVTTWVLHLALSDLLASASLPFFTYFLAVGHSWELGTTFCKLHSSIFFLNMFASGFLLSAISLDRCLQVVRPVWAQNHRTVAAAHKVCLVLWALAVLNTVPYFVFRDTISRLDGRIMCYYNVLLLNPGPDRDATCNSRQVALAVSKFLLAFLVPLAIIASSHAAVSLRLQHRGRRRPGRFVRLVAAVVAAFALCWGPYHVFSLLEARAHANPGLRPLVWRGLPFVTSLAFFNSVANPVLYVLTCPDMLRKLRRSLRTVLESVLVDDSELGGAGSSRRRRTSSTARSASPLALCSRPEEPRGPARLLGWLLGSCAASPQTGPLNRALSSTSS
In words: Intracellular calcium mobilisation (FLIPr, fluo-3AM), inhibition of the response to PGD2 in HEK-hrCRTh2-Gα16 cells. It is filed as cell-based. To be noted: antagonist affinity vs PGD2, pIC50 Cheng-Prusoff analysis, read-out: pA2 (converted). The protocol: Pharmacological Data—Intracellular Calcium Mobilisation
Human Embryonic Kidney Cells co-transfected with both the CRTh2 receptor and […] G-protein (HEK-hrCRTh2-G[…]16) are routinely cultured as monolayers in Dulbecco's Modified Eagles Medium (DMEM; Sigma) supplemented with 10% (v:v) heat inactivated foetal bovine serum (New Zealand sourced; Hyclone), 1% (v:v) non-essential amino acids (Gibco BRL), 1% (v:v) penicillin/streptomycin (Gibco BRL), 2 mM L-glutamine (Gibco BRL) and grown under 1 mg/ml […] Geneticin (Gibco BRL) antibiotic selection. Approximately 24 hours prior to the assay the cells are plated at a seeding density of 100,000 cells/well in 100 µl growth media into black walled 96 well Poly-D-Lysine coated plates (Becton Dickinson), with clear bottoms to allow cell inspection and fluorescence measurements from the bottom of each well. All cultures are maintained under standard tissue culture conditions (37° C. in a humidified atmosphere of 5% CO2).
To enable changes in intracellular calcium levels to be measured in HEK-hrCRTh2-Gα16 cells fluo-3AM is utilised as the fluorescent calcium indicator. A dye loading buffer is prepared which consists of a final concentration of 5 µM Fluo-3AM fluorescent cytoplasmic calcium indicator dye (Tef Labs), 2.2 µl/ml Pluronic F127 (Molecular Probes) to promote dye uptake, and 0.5 mM brilliant black (Sigma) to reduce background fluorescence in Balanced Salt Solution (BSS; 125 mM NaCl, 5.4 mM KCl, 16.2 mM NaHCO3, 0.8 mM MgCl2, 1 mM CaCl2, 20 mM HEPES, 1 mM NaH2PO4, 5.5 mM D-(+)-Glucose, 0.1% BSA and pH 7.4 with NaOH). […]
Test compounds are made up at a stock concentration of 10 mM in DMSO. The compounds to be evaluated are then prepared, by serial dilution in BSS buffer, to the required concentrations for inhibition dose response curves to be constructed. […] This allows the potency agonist (p[A]50) value to be determined for the HEK-hrCRTh2-Gα16 cells on any given day. Once the p[A]50 for PGD2 has been determined a separate assay plate containing 2×p[A]50 of PGD2 is prepared as the 2nd addition plate (or agonist plate). […]
(Calcium flux is commonly read through the fluorescence of an indicator in the cells.)

As to `COc1ccc2c(c1)c(CC(=O)O)c(C)n2-c1ncnc2c(Cl)cc(Cl)cc12` [1-(6,8-dichloro-4-quinazolinyl)-5-methoxy-2-methyl-1H-indole-3-acetic acid], the Kb was 1000 nM.

As to `Cc1c(CC(=O)O)c2ccccc2n1-c1ncnc2cc(Cl)ccc12` [1-(7-chloro-4-quinazolinyl)-2-methyl-1H-indole-3-acetic acid], the Kb is 1580 nM. The same measure for `Cc1c(CC(=O)O)c2cc(C(C)C)ccc2n1-c1ncnc2cc(Cl)ccc12` [1-(7-chloro-4-quinazolinyl)-2-methyl-5-(1-methylethyl)-1H-indole-3-acetic acid]: 158 nM.
